Literature values in patent US11691145B2, “Platform and method for multi-variable screening” (Wisconsin Alumni Research Foundation, priority 2018, dated 2023).

Tested on: bacterial pathogens (infection)
Settings: phase 3 clinical trial

CO/N=C(\C(=O)N[C@@H]1C(=O)N2C(C(=O)O)=C(COC(C)=O)CS[C@H]12)c1csc(N)n1 [cefotaxime]
patients who responded to the antibiotic therapy (patients with a "resistant" antibiotic sensitivity test result): 64%
patients who would respond to the antibiotic therapy (patients with a "sensitive" antibiotic sensitivity test result, best case scenario): 93%
